Reference: US20240383892A1, “PARTICLES OF IMIDAZO[4,5-b]PYRIDINE COMPOUND, PHARMACEUTICAL COMPOSITIONS, AND THEIR USE IN TREATING MEDICAL CONDITIONS” (Centrexion Therapeutics Corporation, priority 2023, published 2024)

Experiments:
Format in all cases: physicochemical
[1] = Stability comparison of crystalline forms: temperature of dehydration
From the text: Stability of crystalline 3-(3-methoxy-4-((4-methoxybenzyl)oxy)benzyl)-6-(1-methyl-1H-pyrazol-4-yl)-3H-imidazo[4,5-b]pyridin-2-amine monohydrate Form 3 was compared to crystalline 3-(3-methoxy-4-((4-methoxybenzyl)oxy)benzyl)-6-(1-methyl-1H-pyrazol-4-yl)-3H-imidazo[4,5-b]pyridin-2-amine monohydrate Form 1. The physical property analyzed was temperature of dehydration. Crystalline 3-(3-methoxy-4-((4-methoxybenzyl)oxy)benzyl)-6-(1-methyl-1H-pyrazol-4-yl)-3H-imidazo[4,5-b]pyridin-2-amine monohydrate Form 1 is that described in international patent application publication WO 2016/100677.

[2] = Dynamic vapor sorption (hygroscopicity); settings: 2 cycles of increasing and decreasing relative humidity at 25° C., FIG. 3
Protocol: A dynamic vapor sorption isotherm plot of crystalline 3-(3-methoxy-4-((4-methoxybenzyl)oxy)benzyl)-6-(1-methyl-1H-pyrazol-4-yl)-3H-imidazo[4,5-b]pyridin-2-amine monohydrate Form 3 is provided in FIG. 3. The dynamic vapor sorption isotherm plot results are from the procedure where after a drying stage at 0% relative humidity, compound sample was exposed to 2 cycles of increasing and decreasing relative humidity at 25° C., with steps of 5% relative humidity, where mass of the sample was recorded throughout the experiment.

[3] = Particle size analysis, Malvern Mastersizer 2000; settings: dispersant 0.2% (w/v) Igepal in RO water
Protocol: Particle size analysis was performed on the particles using a Malvern Mastersizer 2000 particle size analyzer equipped with a Hydro2000S sample dispersion unit. Instrument parameters and experimental conditions are set forth below:
A 50 mg±5 mg of sample of particles was weighed and placed in a 20 mL plastic blood dilution vial. Five drops of dispersant (0.2% (w/v) Igepal in RO water) was added to the vial and mixed to a slurry using the flat end of a spatula. Dispersant (20 mL) was then added and stirred with a spatula to begin dispersion. The sample vial was placed onto a magnetic stir plate and stirred for 5 minutes. While stirring, we withdrew an aliquot of the dispersed sample using a transfer pipet and transferred it to the Hydro2000S until an obscuration of 10-30% was obtained. The sample was allowed to recirculate for 5 minutes at 2500 RPM prior to initiating the sample measurement.

## COc1ccc(COc2ccc(Cn3c(N)nc4cc(-c5cnn(C)c5)cnc43)cc2OC)cc1 [Form 1, 3-(3-methoxy-4-((4-methoxybenzyl)oxy)benzyl)-6-(1-methyl-1H-pyrazol-4-yl)-3H-imidazo[4,5-b]pyridin-2-amine monohydrate]
[1]; under a stream of nitrogen gas
  temperature of dehydration: room temperature

## COc1ccc(COc2ccc(Cn3c(N)nc4cc(-c5cnn(C)c5)cnc43)cc2OC)cc1 [Form 3, 3-(3-methoxy-4-((4-methoxybenzyl)oxy)benzyl)-6-(1-methyl-1H-pyrazol-4-yl)-3H-imidazo[4,5-b]pyridin-2-amine monohydrate]
[2]
  hygroscopicity (dynamic vapor sorption isotherm): not hygroscopic
[1]; heated
  temperature of dehydration: 130 °C

## COc1ccc(COc2ccc(Cn3c(N)nc4cc(-c5cnn(C)c5)cnc43)cc2OC)cc1 [Particles Prepared in Part I, 3-(3-methoxy-4-((4-methoxybenzyl)oxy)benzyl)-6-(1-methyl-1H-pyrazol-4-yl)-3H-imidazo[4,5-b]pyridin-2-amine monohydrate]
[3]
  Particle Size Parameter D10: 18.6 µm
  Particle Size Parameter D50: 56.5 µm
  Particle Size Parameter D90: 131 µm
